According to PubChem BioAssay AID1745844 (Carcinogenic Potency Database (CPDB), 2022):
Active and inactive are the calls of the source. No rule for the calls is given here.

Test system: rodent lifetime carcinogenesis bioassay, tumor incidence TD50
Test: carcinogenic potency in animals, long-term in vivo studies, CPDB compilation (AID 1745844)

Compound `CC(COc1ccc(C(C)(C)C)cc1)OS(=O)OCCCl` (stereo not given) has a TD50 (mouse, strain B6AKF1, females, oral dosing, site: any site (literature study), lesion: several types, types named in the paper, dosed 80 weeks, study length 80 weeks) of 391 mg/kg/day, a TD50 (mouse, strain B6AKF1, females, oral dosing, site: lung, lesion: adenoma, dosed 80 weeks, study length 80 weeks) of 432 mg/kg/day and a TD50 (mouse, strain B6AKF1, males, oral dosing, site: liver, lesion: hepatoma, dosed 77 weeks, study length 77 weeks) of 15900 mg/kg/day. It also gave a TD50 (mouse, strain B6C3F1, females, oral dosing, site: any site (literature study), lesion: several types, types named in the paper, dosed 77 weeks, study length 77 weeks) of 92.7 mg/kg/day, a TD50 (mouse, strain B6C3F1, females, oral dosing, site: liver, lesion: hepatoma, dosed 77 weeks, study length 77 weeks) of 973 mg/kg/day and a TD50 (mouse, strain B6C3F1, females, oral dosing, site: lung, lesion: adenoma, dosed 77 weeks, study length 77 weeks) of 973 mg/kg/day. It also gave a TD50 (mouse, strain B6C3F1, males, oral dosing, site: any site (literature study), lesion: several types, types named in the paper, dosed 80 weeks, study length 80 weeks) of 103 mg/kg/day, a TD50 (mouse, strain B6C3F1, males, oral dosing, site: liver, lesion: hepatoma, dosed 80 weeks, study length 80 weeks) of 158 mg/kg/day and a TD50 (mouse, strain B6C3F1, males, oral dosing, site: liver, lesion: several types, types named in the paper, dosed 80 weeks, study length 80 weeks) of 126 mg/kg/day. The TD50 (rat, strain CFN, both sexes, in feed, site: bile duct, lesion: adenoma, dosed 104 weeks, study length 104 weeks) was 1010 mg/kg/day, the TD50 (rat, strain CFN, both sexes, in feed, site: liver, lesion: hyperplastic nodule, dosed 104 weeks, study length 104 weeks) was 61.8 mg/kg/day and the TD50 (rat, strain Food and Drug Research Laboratories stock rats, both sexes, in feed, site: liver, lesion: several types, types named in the paper, dosed 93 weeks, study length 104 weeks) was 430 mg/kg/day. For the same compound, the TD50 (rat, strain Osborne-Mendel, females, in feed, site: any site (literature study), lesion: benign tumor, dosed 104 weeks, study length 104 weeks) was 31.5 mg/kg/day (inactive), the carcinogen call (rat, strain Osborne-Mendel, females, in feed, site: any site (literature study), lesion: malignant tumor, dosed 104 weeks, study length 104 weeks) was “negative (inactive)” and the carcinogen call (rat, strain Osborne-Mendel, females, in feed, site: any site (literature study), lesion: several types, types named in the paper, dosed 117 weeks, study length 117 weeks) was “negative (inactive)”. For the same compound, the TD50 (rat, strain Osborne-Mendel, females, in feed, site: liver, lesion: hemangioma, dosed 117 weeks, study length 117 weeks) was 256 mg/kg/day (inactive), the carcinogen call (rat, strain Osborne-Mendel, females, in feed, site: liver, lesion: one or several types, types not named, dosed 104 weeks, study length 104 weeks) was “negative (inactive)” and the TD50 (rat, strain Osborne-Mendel, males, in feed, site: any site (literature study), lesion: benign tumor, dosed 104 weeks, study length 104 weeks) was 64.7 mg/kg/day (inactive). The carcinogen call (rat, strain Osborne-Mendel, males, in feed, site: any site (literature study), lesion: malignant tumor, dosed 104 weeks, study length 104 weeks) was “negative (inactive)”, the TD50 (rat, strain Osborne-Mendel, males, in feed, site: any site (literature study), lesion: malignant tumor, dosed 117 weeks, study length 117 weeks) was 101 mg/kg/day (inactive) and the TD50 (rat, strain Osborne-Mendel, males, in feed, site: any site (literature study), lesion: several types, types named in the paper, dosed 117 weeks, study length 117 weeks) was 198 mg/kg/day (inactive). The carcinogen call (rat, strain Osborne-Mendel, males, in feed, site: liver, lesion: one or several types, types not named, dosed 104 weeks, study length 104 weeks) was “negative (inactive)”, the carcinogen call (rat, strain Osborne-Mendel, males, in feed, site: liver, lesion: one or several types, types not named, dosed 117 weeks, study length 117 weeks) was “negative (inactive)” and the TD50 (rat, strain Sprague-Dawley, both sexes, in feed, site: liver, lesion: hyperplastic nodule, dosed 104 weeks, study length 104 weeks) was 760 mg/kg/day. The TD50 (rat, strain Wistar/FDRL, both sexes, in feed, site: bile duct, lesion: adenoma, dosed 104 weeks, study length 104 weeks) was 397 mg/kg/day, the TD50 (rat, strain Wistar/FDRL, both sexes, in feed, site: liver, lesion: hepatocellular carcinoma, dosed 104 weeks, study length 104 weeks) was 1000 mg/kg/day and the TD50 (rat, strain Wistar/FDRL, both sexes, in feed, site: liver, lesion: hyperplastic nodule, dosed 104 weeks, study length 104 weeks) was 79.9 mg/kg/day.
For `CN=C(N)N`, the TD50 (rat, strain Wistar, males, in feed, site: liver, lesion: hemangioma, dosed 68 weeks, study length 68 weeks) was 84 mg/kg/day.
`c1ccc2c(c1)[nH]c1ccccc12` gave a TD50 (mouse, strain B6C3F1, females, in feed, site: forestomach, lesion: papilloma, dosed 96 weeks, study length 104 weeks) of 1290 mg/kg/day, a TD50 (mouse, strain B6C3F1, females, in feed, site: forestomach, lesion: several types, types named in the paper, dosed 96 weeks, study length 104 weeks) of 1960 mg/kg/day and a TD50 (mouse, strain B6C3F1, females, in feed, site: liver, lesion: hepatocellular carcinoma, dosed 96 weeks, study length 104 weeks) of 102 mg/kg/day. It also gave a TD50 (mouse, strain B6C3F1, males, in feed, site: forestomach, lesion: papilloma, dosed 96 weeks, study length 104 weeks) of 7030 mg/kg/day, a TD50 (mouse, strain B6C3F1, males, in feed, site: forestomach, lesion: several types, types named in the paper, dosed 96 weeks, study length 104 weeks) of 2790 mg/kg/day and a TD50 (mouse, strain B6C3F1, males, in feed, site: forestomach, lesion: squamous-cell carcinoma, dosed 96 weeks, study length 104 weeks) of 4940 mg/kg/day. It also gave a TD50 (mouse, strain B6C3F1, males, in feed, site: liver, lesion: hepatocellular carcinoma, dosed 96 weeks, study length 104 weeks) of 424 mg/kg/day.
For `CN(N=O)C(N)=O`, the TD50 (monkey, strain Cynomolgus [Macaca fascicularis], both sexes, in feed, site: any site (literature study), lesion: benign tumor, dosed 928 weeks, study length 1135 weeks) was 19.1 mg/kg/day, the TD50 (monkey, strain Cynomolgus [Macaca fascicularis], both sexes, in feed, site: any site (literature study), lesion: malignant tumor, dosed 928 weeks, study length 1135 weeks) was 4 mg/kg/day and the TD50 (monkey, strain Cynomolgus [Macaca fascicularis], both sexes, in feed, site: any site (literature study), lesion: several types, types named in the paper, dosed 928 weeks, study length 1135 weeks) was 2.64 mg/kg/day. For the same compound, the TD50 (monkey, strain Cynomolgus [Macaca fascicularis], both sexes, in feed, site: colon, lesion: leiomyosarcoma, dosed 928 weeks, study length 1135 weeks) was 34.5 mg/kg/day, the TD50 (monkey, strain Cynomolgus [Macaca fascicularis], both sexes, in feed, site: esophagus, lesion: several types, types named in the paper, dosed 928 weeks, study length 1135 weeks) was 7.71 mg/kg/day and the TD50 (monkey, strain Cynomolgus [Macaca fascicularis], both sexes, in feed, site: esophagus, lesion: squamous-cell carcinoma, dosed 928 weeks, study length 1135 weeks) was 10.5 mg/kg/day. The TD50 (monkey, strain Cynomolgus [Macaca fascicularis], both sexes, in feed, site: esophagus, lesion: squamous-cell papilloma, dosed 928 weeks, study length 1135 weeks) was 29.2 mg/kg/day, the TD50 (monkey, strain Cynomolgus [Macaca fascicularis], both sexes, in feed, site: heart, lesion: rhabdomyoblastoma, dosed 928 weeks, study length 1135 weeks) was 66.3 mg/kg/day and the TD50 (monkey, strain Cynomolgus [Macaca fascicularis], both sexes, in feed, site: oral cavity, lesion: several types, types named in the paper, dosed 928 weeks, study length 1135 weeks) was 2.65 mg/kg/day. For the same compound, the TD50 (monkey, strain Cynomolgus [Macaca fascicularis], both sexes, in feed, site: palate, soft, lesion: squamous-cell carcinoma, dosed 928 weeks, study length 1135 weeks) was 7.95 mg/kg/day, the TD50 (monkey, strain Cynomolgus [Macaca fascicularis], both sexes, in feed, site: pharynx, lesion: squamous-cell carcinoma, dosed 928 weeks, study length 1135 weeks) was 82.2 mg/kg/day and the TD50 (monkey, strain Cynomolgus [Macaca fascicularis], both sexes, in feed, site: skull, lesion: rhabdomyosarcoma, dosed 928 weeks, study length 1135 weeks) was 23.9 mg/kg/day. The TD50 (monkey, strain Cynomolgus [Macaca fascicularis], both sexes, in feed, site: stomach, lesion: adenocarcinoma, dosed 928 weeks, study length 1135 weeks) was 66.3 mg/kg/day, the TD50 (monkey, strain Cynomolgus [Macaca fascicularis], both sexes, in feed, site: tongue, lesion: squamous-cell papilloma, dosed 928 weeks, study length 1135 weeks) was 7.95 mg/kg/day and the TD50 (monkey, strain Cynomolgus [Macaca fascicularis], both sexes, in feed, site: upper gastrointestinal tract, lesion: squamous-cell carcinoma, dosed 928 weeks, study length 1135 weeks) was 4.52 mg/kg/day. The TD50 (monkey, strain Rhesus [Macaca mulatta], both sexes, in feed, site: any site (literature study), lesion: malignant tumor, dosed 928 weeks, study length 1139 weeks) was 6.75 mg/kg/day, the TD50 (monkey, strain Rhesus [Macaca mulatta], both sexes, in feed, site: cheek pouch, lesion: squamous-cell carcinoma, dosed 928 weeks, study length 1139 weeks) was 95.6 mg/kg/day and the TD50 (monkey, strain Rhesus [Macaca mulatta], both sexes, in feed, site: epiglottis, lesion: squamous-cell carcinoma, dosed 928 weeks, study length 1139 weeks) was 42.8 mg/kg/day. The TD50 (monkey, strain Rhesus [Macaca mulatta], both sexes, in feed, site: esophagus, lesion: squamous-cell carcinoma, dosed 928 weeks, study length 1139 weeks) was 8.2 mg/kg/day, the TD50 (monkey, strain Rhesus [Macaca mulatta], both sexes, in feed, site: gingiva, lesion: squamous-cell carcinoma, dosed 928 weeks, study length 1139 weeks) was 62.6 mg/kg/day and the TD50 (monkey, strain Rhesus [Macaca mulatta], both sexes, in feed, site: larynx, lesion: squamous-cell carcinoma, dosed 928 weeks, study length 1139 weeks) was 95.6 mg/kg/day. It also gave a TD50 (monkey, strain Rhesus [Macaca mulatta], both sexes, in feed, site: oral cavity, lesion: several types, types named in the paper, dosed 928 weeks, study length 1139 weeks) of 15.7 mg/kg/day, a TD50 (monkey, strain Rhesus [Macaca mulatta], both sexes, in feed, site: palate, soft, lesion: squamous-cell carcinoma, dosed 928 weeks, study length 1139 weeks) of 102 mg/kg/day and a TD50 (monkey, strain Rhesus [Macaca mulatta], both sexes, in feed, site: pharynx, lesion: squamous-cell carcinoma, dosed 928 weeks, study length 1139 weeks) of 44.2 mg/kg/day. For the same compound, the TD50 (monkey, strain Rhesus [Macaca mulatta], both sexes, in feed, site: stomach, lesion: adenocarcinoma, dosed 928 weeks, study length 1139 weeks) was 42.8 mg/kg/day, the TD50 (monkey, strain Rhesus [Macaca mulatta], both sexes, in feed, site: tongue, lesion: squamous-cell carcinoma, dosed 928 weeks, study length 1139 weeks) was 72.9 mg/kg/day and the TD50 (monkey, strain Rhesus [Macaca mulatta], both sexes, in feed, site: upper gastrointestinal tract, lesion: squamous-cell carcinoma, dosed 928 weeks, study length 1139 weeks) was 7.18 mg/kg/day. For the same compound, the TD50 (mouse, strain C3H (MTV+), males, in drinking water, site: liver, lesion: neoplastic nodule, dosed 30 weeks, study length 54 weeks) was 2.53 mg/kg/day, the TD50 (mouse, strain C3H (MTV+), males, in drinking water, site: lung, lesion: adenoma, dosed 30 weeks, study length 54 weeks) was 0.794 mg/kg/day and the TD50 (mouse, strain C3H (MTV+), males, in drinking water, site: spleen, lesion: hemangioendothelial sarcoma, dosed 30 weeks, study length 54 weeks) was 1.23 mg/kg/day. It also gave a TD50 (mouse, strain C3H (MTV+), males, in drinking water, site: stomach, glandular, lesion: adenocarcinoma, dosed 30 weeks, study length 54 weeks) of 6.19 mg/kg/day, a TD50 (rat, strain Fischer 344, males, by gavage, site: forestomach, lesion: one or several types, types not named, dosed 28 weeks, study length 104 weeks) of 0.0927 mg/kg/day and a TD50 (rat, strain Fischer 344, males, by gavage, site: liver, lesion: one or several types, types not named, dosed 28 weeks, study length 104 weeks) of 11.6 mg/kg/day. It also gave a TD50 (rat, strain Fischer 344, males, by gavage, site: lung, lesion: several types, types named in the paper, dosed 28 weeks, study length 104 weeks) of 0.357 mg/kg/day and a TD50 (rat, strain Fischer 344, males, by gavage, site: nervous system, lesion: several types, types named in the paper, dosed 28 weeks, study length 104 weeks) of 2.03 mg/kg/day.
`CCNC(=O)N(C=O)CCN(C)C` was tested, and the TD50 (rat, strain Fischer 344, females, by gavage, site: cervix, lesion: adenocarcinoma, dosed 37 weeks, study length 102 weeks) was 5.35 mg/kg/day, the TD50 (rat, strain Fischer 344, females, by gavage, site: lung, lesion: one or several types, types not named, dosed 37 weeks, study length 102 weeks) was 5.35 mg/kg/day and the TD50 (rat, strain Fischer 344, females, by gavage, site: mammary gland, lesion: adenocarcinoma, dosed 37 weeks, study length 102 weeks) was 3.39 mg/kg/day. It also gave a TD50 (rat, strain Fischer 344, females, by gavage, site: mammary gland, lesion: adenoma, dosed 37 weeks, study length 102 weeks) of 11.2 mg/kg/day, a TD50 (rat, strain Fischer 344, females, by gavage, site: mammary gland, lesion: fibroadenoma, dosed 37 weeks, study length 102 weeks) of 0.704 mg/kg/day and a TD50 (rat, strain Fischer 344, females, by gavage, site: uterus, lesion: adenoma, dosed 37 weeks, study length 102 weeks) of 11.2 mg/kg/day. It also gave a TD50 (rat, strain Fischer 344, females, by gavage, site: uterus, lesion: endometrial polyp, dosed 37 weeks, study length 102 weeks) of 1.41 mg/kg/day, a TD50 (rat, strain Fischer 344, males, by gavage, site: lung, lesion: one or several types, types not named, dosed 37 weeks, study length 102 weeks) of 2.37 mg/kg/day and a TD50 (rat, strain Fischer 344, males, by gavage, site: skin, lesion: keratoacanthoma, dosed 37 weeks, study length 102 weeks) of 1.92 mg/kg/day.
For `CCNNC(=O)[C@@H]1[C@H](c2cc(OC)c(OC)c(OC)c2)c2cc3c(cc2[C@H](O)[C@H]1CO)OCO3`, the carcinogen call (rat, strain BR 46, males, i.v., site: any site (literature study), lesion: several types, types named in the paper, dosed 52 weeks, study length 104 weeks) was “negative (inactive)”.
